Assay results from patent US10131679B2, “Substituted dihydropyrrolopyrazole compound” (UBE INDUSTRIES, LTD., priority 2014, dated 2018).

What was measured:
[1] = tested on: Human keratinocytes (NHEK-Neo Pooled); experiment: Human keratinocyte growth inhibition assay; format: cell-based; conditions: 48 h, culture for 2 days, Cell Counting Kit-8
Experimental: Human Keratinocyte Growth Inhibition Assay
The measurement of a human keratinocyte growth inhibitory effect was carried out by modifying the method of Schafer et al. (British Journal of Pharmacology, 159, 842 (2011)).
Human keratinocytes (NHEK-Neo Pooled, manufactured by Lonza Group AG, Cat. No. 00192906) were cultured in KGM-Gold Bullet Kit (manufactured by Lonza Group AG, Cat. No. 00192060) and inoculated at 2.0×10^3 cells/well to a 96-well plate. After overnight culture in a carbon dioxide incubator, a test compound dissolved in DMSO (final DMSO concentration: 0.1%) was added and left standing in a carbon dioxide incubator. After culture for 2 days, the absorbance thereof was measured by using Cell Counting Kit-8 (343-07623 manufactured by Dojindo Laboratories)).
The rate of inhibition of cell growth at each concentration was calculated from the test compound concentration and the absorbance of Cell Counting Kit-8, and the concentration of the test compound necessary for inhibiting 50% of cell growth (IC50 value) was calculated by using EXSUS (version 8.0.0 or version 8.0.1, manufactured by CAC Exicare Corp.).

[2] = tested on: human large intestine cancer cell line (HCT-116); experiment: Human large intestine cancer (HCT-116) cell growth inhibition test; format: cell-based; conditions: 72 h, HCT-116, culture for 3 days, sulforhodamine B absorbance
How it was run: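 HCT-116 cells seeded at 1.0×10^3 cells/well in McCoy's 5a with 10% FBS, then exposed to compound (0.1% DMSO final) for 3 days. Growth measured by sulforhodamine B absorbance; IC50 derived from concentration-inhibition data.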

[3] = molecular target: T1, CDK7 (Homo sapiens, UniProt P50613); experiment: CDK7 enzyme inhibition test; format: biochemical; conditions: Ki=IC50/(1+S/Km); 33P bound to MBP, [γ-33P]ATP, 30° C. for 20 minutes; read-out: Ki value of CDK7 inhibitory activity
T1 construct: purchased Carna Biosciences, Inc. 04-108
How it was run: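 Recombinant CDK7 with MBP substrate and [γ-33P]ATP (500 μM solution, diluted into the mix) in HEPES pH 7.4/DTT/Triton X-100/MgCl2, 20 min at 30 °C. TCA-precipitated 33P-MBP counted by scintillation; IC50 from inhibition, Ki = IC50/(1+S/Km).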

[4] = tested on: IL-2 production in human peripheral blood mononuclear cell (PBMC); experiment: Human PBMC CD3/CD28-induced IL-2 production inhibition test; format: cell-based; conditions: 48 h, CD3/CD28 stimulation, incubation for 2 days, ELISA
From the text: Human Peripheral Blood Mononuclear Cell (PBMC) CD3/CD28-Induced IL-2 Production Inhibition Test
PBMC was separated and collected by using Ficoll-Paque (17-1440-02 manufactured by GE Healthcare Japan Corp.) from blood collected from healthy human adult in the presence of heparin. RPMI1640 medium (manufactured by GIBCO/Thermo Fisher Scientific, Inc., REF. 11875) containing 10% FBS (manufactured by GIBCO/Thermo Fisher Scientific, Inc. REF. 10082) and containing a test compound dissolved in DMSO and 2 μg/mL anti-hCD28 (manufactured by R&D Systems, Inc., Cat. No. MAB342) was added at 100 μL/well to T cell Activation Plate Anti-Human CD3 96-well plate (manufactured by Corning Inc., REF. 354725), and subsequently, a PBMC suspension adjusted such that the number of cells was 2×10^6 cells/mL was added at 100 μL/well (final DMSO concentration: 0.1%). A RPMI1640 medium containing 10% FBS and containing 0.1% DMSO and 2 μg/mL anti-hCD28 was similarly added to wells not supplemented with the test compound. After incubation for 2 days in a carbon dioxide incubator, the culture supernatant was collected. The collected culture supernatant was stored at −20° C. until IL-2 content measurement.
In the measurement of IL-2 content in the culture supernatant, a sandwich ELISA kit Quantikine Human IL-2 (manufactured by R&D Systems, Inc., Cat. No. S2050) was used. The IL-2 content of each sample was calculated from the calibration curve of Standard IL-2 included in the kit. When the amount of IL-2 produced by CD3/CD28 stimulation in the case of the addition of only DMSO was defined as 100%, the rate of inhibition of IL-2 production at each concentration of the test compound was calculated. A test compound concentration inhibiting 50% of IL-2 production was calculated as an IC50 value (nM) from the concentration of the added test compound and the rate of inhibition of IL-2 production by the test compound by using EXSUS (version 8.0.0 or version 8.0.1, manufactured by CAC Exicare Corp.).

[5] = tested on: mouse imiquimod-induced psoriasis model; experiment: Ear thickening suppression test using mouse imiquimod-induced psoriasis model; format: in vivo; conditions: topical, 120 h, application of a 0.01% methanol solution for 4 days, thickness measured on day 5, BALB/c mice, read-out: rate of inhibition of increase in right auricle thickness
Experimental: Ear Thickening Suppression Test Using Mouse Imiquimod-Induced Psoriasis Model
An imiquimod-induced psoriasis model test was carried out by modifying the method of Leslie van der Fits et al. (J. Immunol. 182, 5836 (2009)). BALB/c mice were used (female, supplied by Charles River Laboratories Japan, Inc.) as laboratory animals. On the start day of the test, the thicknesses of the right auricles of the mice were measured with a thickness gauge (model SMD-565J manufactured by TECLOCK Corp.). A test compound solution or only a solvent was applied or orally administered, and after 60 minutes, 5 mg of imiquimod (Beselna Cream 5% manufactured by Mochida Pharmaceutical Co., Ltd.) was applied to the insides of the right auricles. The test compound solution or solvent administration and the imiquimod application were carried out for 4 days, and the thicknesses of the right auricles were measured again on day 5. When increase in the thicknesses of the right auricles of the solvent-administered group on day 5 was defined as 100%, the rate of inhibition of increase (%) at each dose of the test compound was calculated.

[6] = tested on: IL-6 production in rat adjuvant arthritis model; experiment: IL-6 production inhibition test in rat adjuvant arthritis model; format: in vivo, LEW rats; conditions: single dose, administration of 10 mg/kg, left ankle, read-out: rate of inhibition of IL-6 production
Experimental: IL-6 Production Inhibition Test in Rat Adjuvant Arthritis Model
A single-dose drug efficacy test using rat adjuvant arthritis models was carried out by modifying the method of Magari. K et al. (J. Rheumatol. 30 (10), 2193 (2003)).
LEW rats (female, supplied by Charles River Laboratories Japan, Inc.) were used as laboratory animals. An adjuvant prepared from heat-killed bacteria of Mycobacterium butyricum (264010 manufactured by Difco Laboratories Ltd.) and liquid paraffin (manufactured by Wako Pure Chemical Industries, Ltd., Code No. 128-04375) was subcutaneously administered as a phlogogenic material to the right hind leg footpads of the rats under inhalation anesthesia with isoflurane (manufactured by Wako Pure Chemical Industries, Ltd., Code No. 099-06571) to prepare arthritis models. Approximately 2 weeks later, left paw edema was measured with a paw volume meter (model TK-101CMP manufactured by Unicorn Co., Ltd.), and grouping was performed such that the average volume of left paw edema was equal among groups. A test compound or only a solvent was administered, after a certain time, they were sacrificed by exsanguination from the abdomens under isoflurane anesthesia, and the left ankles were collected, chopped, and frozen by using liquid nitrogen. The collected left ankle portions were disrupted in CRYOPress (model CP-100WP manufactured by Microtec Co., Ltd.), then supplemented with a buffer solution, shaken overnight at 4° C., and then centrifuged to collected a supernatant. The preparation of the buffer solution was performed by mixing a Tris buffer solution (pH 7.4), sodium chloride (NaCl), phenyl methyl sulfonyl fluoride (PMSF), Triton X-100, EDTA-free complete tablets (manufactured by F. Hoffmann-La Roche, Ltd., REF. 11 873 580 001), and Otsuka distilled water (manufactured by Otsuka Pharmaceutical Co., Ltd., product No. 1323). IL-6 in the collected supernatant was measured by using a sandwich ELISA kit (manufactured by R&D Systems, Inc., Catalog No. S6050).
The IL-6 content of each sample was calculated from the calibration curve of Standard IL-6 included in the kit. When the amount of IL-6 produced in the solvent administration control group was defined as 100%, the rate of inhibition of IL-6 production (%) at each dose of the test compound was calculated.

T1 sequence (P50613 whole entry): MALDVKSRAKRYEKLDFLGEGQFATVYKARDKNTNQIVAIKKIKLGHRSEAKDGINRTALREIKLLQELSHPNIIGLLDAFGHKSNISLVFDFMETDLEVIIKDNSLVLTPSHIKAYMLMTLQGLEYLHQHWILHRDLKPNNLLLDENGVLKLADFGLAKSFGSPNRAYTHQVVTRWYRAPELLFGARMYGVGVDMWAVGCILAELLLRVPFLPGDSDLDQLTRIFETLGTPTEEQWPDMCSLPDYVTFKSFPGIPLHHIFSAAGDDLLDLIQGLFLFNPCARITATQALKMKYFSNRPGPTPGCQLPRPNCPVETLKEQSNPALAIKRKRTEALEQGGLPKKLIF
T1 sequence (P51946 whole entry partner): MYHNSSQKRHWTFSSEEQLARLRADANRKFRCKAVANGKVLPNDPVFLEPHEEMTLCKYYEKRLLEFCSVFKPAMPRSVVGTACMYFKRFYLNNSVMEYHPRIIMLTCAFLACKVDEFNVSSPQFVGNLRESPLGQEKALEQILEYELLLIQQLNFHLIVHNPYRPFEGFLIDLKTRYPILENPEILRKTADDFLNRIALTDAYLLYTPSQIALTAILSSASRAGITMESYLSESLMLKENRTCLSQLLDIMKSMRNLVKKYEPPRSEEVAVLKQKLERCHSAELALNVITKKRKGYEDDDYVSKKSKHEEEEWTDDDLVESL
T1 sequence (P51948 whole entry partner): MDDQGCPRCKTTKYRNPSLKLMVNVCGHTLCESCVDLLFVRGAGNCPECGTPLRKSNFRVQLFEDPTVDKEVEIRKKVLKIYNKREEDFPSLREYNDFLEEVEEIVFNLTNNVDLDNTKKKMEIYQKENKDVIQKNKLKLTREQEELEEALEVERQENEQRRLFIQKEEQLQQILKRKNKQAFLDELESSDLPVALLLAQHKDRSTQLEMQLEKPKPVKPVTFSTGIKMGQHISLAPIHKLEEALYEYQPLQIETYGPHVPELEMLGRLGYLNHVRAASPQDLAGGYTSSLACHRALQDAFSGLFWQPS

IC50 [2] | Ki [3] | Compound | IC50 [1] | IC50 [4] | inhibition in vivo at 0.01 % [5] | inhibition in vivo at 10 mg/kg [6]
≤ 500 nM | ≤ 50 nM | CC1(C)c2[nH]nc(NC(=O)C3([Si](C)(C)C)CCC3)c2CN1C(=O)NC(C#CCO)c1ccccc1 (racemic) [IV-378, N-(4-Hydroxy-1-phenyl-2-butyn-1-yl)-6,6-dimethyl-3-[1-(trimethylsilyl)cyclobutanecarboxamido]-4,6-dihydropyrrolo[3,4-c]pyrazole-5(1H)-carboxamide] | ≤ 500 nM | – | – | –
≤ 500 nM | ≤ 50 nM | CO[C@@H](C(=O)N1Cc2c(NC(=O)C3([Si](C)(C)C)CC3)n[nH]c2C1(C)C)c1ccccc1 [III-1059, (R)—N-[5-(2-Methoxy-2-phenylacetyl)-6,6-dimethyl-1,4,5,6-tetrahydropyrrolo[3,4-c]pyrazol-3-yl]-1-(trimethylsilyl)cyclopropanecarboxamide] | ≤ 500 nM | – | ≥ 50% | –
≤ 500 nM | ≤ 50 nM | CC1(C)c2[nH]nc(NC(=O)C3([Si](C)(C)C)CCC3)c2CN1C(=O)NC(CO)c1ccccc1F (centres unmarked) [IV-510, N-[1-(2-Fluorophenyl)-2-hydroxyethyl]-6,6-dimethyl-3-[1-(trimethylsilyl)cyclobutanecarboxamido]-4,6-dihydropyrrolo[3,4-c]pyrazole-5(1H)-carboxamide] | – | ≤ 50 nM | – | –
≤ 500 nM | ≤ 50 nM | CC1(C)c2[nH]nc(NC(=O)C3([Si](C)(C)C)CCC3)c2CN1C(=O)N[C@H](CO)c1cccc(F)c1 [IV-519, (S)—N-[1-(3-Fluorophenyl)-2-hydroxyethyl]-6,6-dimethyl-3-[1-(trimethylsilyl)cyclobutanecarboxamido]-4,6-dihydropyrrolo[3,4-c]pyrazole-5(1H)-carboxamide] | ≤ 500 nM | ≤ 50 nM | – | –
≤ 500 nM | ≤ 50 nM | CC1(C)c2[nH]nc(NC(=O)C3([Si](C)(C)C)CCC3)c2CN1C(=O)N[C@H](CO)c1ccc(F)cc1 [IV-527, (S)—N-[1-(4-Fluorophenyl)-2-hydroxyethyl]-6,6-dimethyl-3-[1-(trimethylsilyl)cyclobutanecarboxamido]-4,6-dihydropyrrolo[3,4-c]pyrazole-5(1H)-carboxamide] | ≤ 500 nM | ≤ 50 nM | – | –
≤ 500 nM | ≤ 50 nM | CC(OC1CCCCC1)C(=O)N1Cc2c(NC(=O)C3([Si](C)(C)C)CCC3)n[nH]c2C1(C)C (centres unmarked) [IV-1255, N-{5-[2-(Cyclohexyloxy)propanoyl]-6,6-dimethyl-1,4,5,6-tetrahydropyrrolo[3,4-c]pyrazol-3-yl}-1-(trimethylsilyl)cyclobutanecarboxamide] | – | ≤ 50 nM | – | –

Compound | IC50 [2] | Ki [3] | IC50 [1] | IC50 [4] | inhibition in vivo at 0.01 % [5] | inhibition in vivo at 10 mg/kg [6]
CC(C)(O)[C@@H](NC(=O)N1Cc2c(NC(=O)C3([Si](C)(C)C)CC3)n[nH]c2C1(C)C)c1ccccc1 [III-170, (S)—N-(2-Hydroxy-2-methyl-1-phenylpropyl)-6,6-dimethyl-3-[1-(trimethylsilyl)cyclopropanecarboxamido]-4,6-dihydropyrrolo[3,4-c]pyrazole-5(1H)-carboxamide] | ≤ 500 nM | ≤ 50 nM | ≤ 500 nM | ≤ 50 nM | – | –
CC1(C)c2[nH]nc(NC(=O)C3([Si](C)(C)C)CC3)c2CN1C(=O)N[C@H](CCO)c1ccccc1 [III-226, (R)—N-(3-Hydroxy-1-phenylpropyl)-6,6-dimethyl-3-[1-(trimethylsilyl)cyclopropanecarboxamido]-4,6-dihydropyrrolo[3,4-c]pyrazole-5(1H)-carboxamide] | ≤ 500 nM | ≤ 50 nM | ≤ 500 nM | ≤ 50 nM | – | –
CC1(C)c2[nH]nc(NC(=O)C3([Si](C)(C)C)CCC3)c2CN1C(=O)N[C@H](COC(F)F)c1ccccc1 [IV-131, (S)—N-[2-(Difluoromethoxy)-1-phenylethyl]-6,6-dimethyl-3-[1-(trimethylsilyl)cyclobutanecarboxamido]-4,6-dihydropyrrolo[3,4-c]pyrazole-5(1H)-carboxamide] | ≤ 500 nM | – | ≤ 500 nM | – | – | –
COCC[C@@H](NC(=O)N1Cc2c(NC(=O)C3([Si](C)(C)C)CCC3)n[nH]c2C1(C)C)c1ccccc1 [IV-235, (R)—N-(3-Methoxy-1-phenylpropyl)-6,6-dimethyl-3-[1-(trimethylsilyl)cyclobutanecarboxamido]-4,6-dihydropyrrolo[3,4-c]pyrazole-5(1H)-carboxamide] | ≤ 500 nM | – | ≤ 500 nM | ≤ 50 nM | – | ≥ 50%
